Experimental data as given in patent US12194084B2 (priority 2019, dated 2025).

Tests used:
[1] = tested on: lymphocytes from MLN of Mtb-infected mice; assay: Recall response to Mtb lipids in Mtb-infected hCD1Tg mice (IFN-γ ELISPOT); format: cell-based
DN1 T cells = format: cell-based, mouse; conditions: screen of 6 common adjuvants, CD69 on DN1 T cells
Description: 24 h later, the percentage of DN1 T cells expressing CD69 was determined by FACS. Data are representative of two experiments.

Sulfoglycolipid [SGL]
T cell responses to Mtb lipid [1]: readily detected

cyclic-di-GMP
enhancement of a suboptimal dose of MA-MC (DN1 T cells): top three candidates

Glucose monomycolate [GMM]
T cell responses to Mtb lipid [1]: readily detected

monophosphoryl lipid A [MPLA]
enhancement of a suboptimal dose of MA-MC (DN1 T cells): top three candidates
